Assays:
Candida albicans = assay: Agar disc diffusion antifungal test; settings: for diameter of clear zone inhibition / Inhibition %: I; for diameter of clear zone inhibition: 20 µL of 100 µM on 6 mm disc, Control (DMSO) = 6 mm; for Inhibition %: (T–C)/T × 100
Mucor indicus = assay: Agar disc diffusion antifungal test; settings: for diameter of clear zone inhibition / Inhibition %: J; for diameter of clear zone inhibition: 20 µL of 100 µM on 6 mm disc, Control (DMSO) = 6 mm; for Inhibition %: (T–C)/T × 100
Bacillus cereus = assay: Agar disc diffusion antibacterial test; settings: for diameter of clear zone inhibition / Inhibition %: G, (+) Bacillus cereus; for diameter of clear zone inhibition: 20 µL of 100 µM on 6 mm disc, Control (DMSO) = 6 mm; for Inhibition %: (T–C)/T × 100
BSA [1] = biological target: T1, BSA (Bos taurus, UniProt P02769); assay: Förster's theory-based FRET computation, donor (BSA)–acceptor (compound); assay type: binding, bovine; design: kET (rate of exchange resonance energy transfer): unit not given here; settings: for J (normalized spectral overlap integral): BSA emission vs compound absorption; for kET (rate of exchange resonance energy transfer) / r (donor-acceptor separation): BSA–compound; for E (efficiency of energy transfer): E=1−F/F0; for B (average brightness of the complex-BSA system): free BSA = 6573.60 M^−1 cm^−1; for R0 (critical distance, 50% energy transfer): n = 1.36, Φ = 0.15, K^2 = 2/3
T1 construct: purchased Sigma Aldrich
T1 sequence (P02769 25-607): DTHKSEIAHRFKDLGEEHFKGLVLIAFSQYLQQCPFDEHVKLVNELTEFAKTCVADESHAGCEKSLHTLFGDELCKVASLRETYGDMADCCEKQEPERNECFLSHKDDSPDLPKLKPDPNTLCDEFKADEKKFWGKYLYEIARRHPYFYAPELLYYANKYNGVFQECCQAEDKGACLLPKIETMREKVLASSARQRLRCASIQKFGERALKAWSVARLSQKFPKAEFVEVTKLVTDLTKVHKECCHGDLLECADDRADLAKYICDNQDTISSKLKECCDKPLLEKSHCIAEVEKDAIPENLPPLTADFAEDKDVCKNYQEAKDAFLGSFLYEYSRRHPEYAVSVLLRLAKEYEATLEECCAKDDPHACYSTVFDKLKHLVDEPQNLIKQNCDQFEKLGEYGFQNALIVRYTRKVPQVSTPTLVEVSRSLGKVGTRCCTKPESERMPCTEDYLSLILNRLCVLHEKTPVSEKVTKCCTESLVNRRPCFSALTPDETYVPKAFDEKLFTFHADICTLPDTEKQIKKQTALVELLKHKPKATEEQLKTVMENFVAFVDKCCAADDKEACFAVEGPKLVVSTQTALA
From the text: As per Förster’s theory, the critical distance of the donor-acceptor system can be determined with the supporting of the FRET approach to assess the binding affinity between BSA-substance systems. […]
excitation and emission directions, respectively. Also, the alteration in absorbance (OD) at the excitation and fluorescence wavelengths, respectively, is sometimes referred to as A ex and […]
F = 1+KSV [Q] = 1+ Kq τ0 (S13)
Where [Q] is represented as the sample concentration (quencher), the emission intensities F 0 and F are those in the […] of the quencher, respectively.
F ) = log Kass + nlog [Q] (S14)
KEB[EB] = Kapp[compound] (S15)
∆F = (F 0–F), Equation (16) was utilized to examine the Lineweaver –Burk binding constant (KLB) from the linear regression plot of 1/(F0–F) vs 1/[Q]. […]
γ =(F0–F)/F0, CF is denoted as the concentration of sample alone, the linear regression plot of (γ/CF) vs γ was employed to support equation (17), which was used to determine the values of KSA and n, respectively.
2.2.6. FRET calculation by Förster’s theory
Calculating FRET (Fluorescence Resonance Energy Transfer) is a crucial approach in determining the critical distance (r) between donor (BSA) and acceptor (test compound) molecules, in which the binding affinity between the BSA-complex systems could be evalued according to Förster’s theory. The overlap of the emission spectrum of the donor (BSA) and the absorption spectrum of the acceptor (compound) describes that the acceptor (compound) group may get excited as a result of the excited donor's (BSA) energy being lost to the ground […]
The relative orientation factor of the dipoles (K 2) is associated with the geometry of the BSA and complex of the dipoles, the value for random orientation (K 2 = 2/3) like in a fluid […]
F(λ) is represented as the corrected or the normalized emission intensity(OD) of the bovine serum albumin in the range of λ–(λ+∆λ), ε(λ) is denoted as the molar extinction coefficient of […]
The radiative, non-radiative decay and quenching rate constants are denoted as k r, knr and kq, respectively, and the concentration of complex (quenching species) is described as [Q].

[2] = DPPH radical scavenging assay; assay type: biochemical; settings: 517 nm
BSA [3] = biological target: T1, BSA; assay: BSA binding by UV–vis absorption titration; design: species or system bovine; settings: for Δλ (nm) (blue shift of BSA band at 278 nm) / Chromism (% H) (hyperchromism): BSA 25 μM, compound 0–25 μM; for Chromism (% H) (hyperchromism): 278 nm; for Binding Constant Kapp by BH Method: BSA, UV–Vis titration; for ΔGb°: −RT ln Kapp, T = 298 K
Method: UV–vis spectral titrations were performed with a 25 μM concentration of BSA at room temperature with a 5 mM Tris-HCl/50 mM NaCl buffer solution (pH: 7.4). When the sample concentrations (0–25 μM) increased in the same BSA concentration solution, the alteration in the absorption band at 278 nm was continuously monitored.
2.2.8. UV-Vis absorption titrations for the BSA binding assay
The test compound concentrations (0 –25 μM) were varied during the electronic absorption titrations, which were conducted at a fixed BSA concentration (25 μM) in aqueous media (pH = 7.2) at 25 °C. The property of BSA is also confirmed by the observation of a strong absorption band in the UV region at 278 nm. […] The increment of the test compound causes a gradual increase in the BSA absorption band, which leads to the […]
owing to non-covalent interaction of the test compound with BSA [33].
∆Amax = (A∞ - A0), ∆A = (Ax - A0), A0 , Ax and A∞ are denoted as the absorbance of free BSA, the absorbance of BSA in the increment concentrations of the compound, and the absorbance value of the fully bound form of bovine serum albumin with substance, respectively.

[4] = read-out: diameter of clear zone inhibition

Row | SMILES | diameter of clear zone inhibition (Candida albicans) | Inhibition % (Candida albicans) | diameter of clear zone inhibition (Mucor indicus) | Inhibition % (Mucor indicus) | Inhibition % (Bacillus cereus) | J (normalized spectral overlap integral) (BSA [1]) | kET (rate of exchange resonance energy transfer) (BSA [1]) | r (donor-acceptor separation) (BSA [1]) | E (efficiency of energy transfer) (BSA [1]) | B (average brightness of the complex-BSA system) (BSA [1]) | R0 (critical distance, 50% energy transfer) (BSA [1]) | % Inhibition, DPPH ([2]; 40 µM) | % Inhibition, DPPH ([2]; 80 µM) | % Inhibition, DPPH ([2]; 120 µM) | % Inhibition, DPPH ([2]; 160 µM) | % Inhibition, DPPH ([2]; 200 µM) | % Inhibition, DPPH ([2]; 240 µM) | Δλ (nm) (blue shift of BSA band at 278 nm) (BSA [3]) | Chromism (% H) (hyperchromism) (BSA [3]) | ΔGb° (BSA [3]) | further results
1 | [Cu+2].[O-]c1ccccc1N=Cc1ccc(N2CCOCC2)cc1.[O-]c1ccccc1N=Cc1ccc(N2CCOCC2)cc1.c1cnc2c(c1)ccc1cccnc12 [(1b), [Cu^II(L)2(phen)]] | 11 mm | 45% | 10 mm | 40% | 40% | 0.6852 × 10^−14 LM^−1cm^3 | 3.8294 | 2.7780 nm | 0.2769 | 4999.08 M⁻¹ cm⁻¹ | 2.3673 nm | 18.11% | 30.88% | 36.82% | 52.42% | 58.65% | 70.12% | 8 nm | 64.70% | −25.9330 kJmol^−1 | diameter of clear zone inhibition (Bacillus cereus): 10 mm; IC50 [2]: 160 µM; Binding Constant Kapp by BH Method (BSA [3]): 35140 M⁻¹
2 | [O-]c1ccccc1N=Cc1ccc(N2CCOCC2)cc1.[O-]c1ccccc1N=Cc1ccc(N2CCOCC2)cc1.[Zn+2].c1cnc2c(c1)ccc1cccnc12 [(2b), [Zn^II(L)2(phen)]] | 10 mm | 40% | 10 mm | 40% | 45% | 0.9460 × 10^−14 LM^−1cm^3 | 4.7730 | 2.8257 nm | 0.3231 | 5650.81 M⁻¹ cm⁻¹ | 2.4980 nm | 12.82% | 24.88% | 30.89% | 40.27% | 50.12% | 60.66% | 8 nm | 62.16% | −24.7590 kJmol^−1 | diameter of clear zone inhibition (Bacillus cereus): 11 mm; IC50 [2]: 200 µM; Binding Constant Kapp by BH Method (BSA [3]): 21878 M⁻¹
3 | Oc1ccccc1N=Cc1ccc(N2CCOCC2)cc1 [(HL), 2-(4-morpholinobenzylideneamino)phenol] | – | 40% | – | 45% | 33% | 0.8215 × 10^−14 LM^−1cm^3 | 5.8443 | 2.6685 nm | 0.3462 | 5339.79 M⁻¹ cm⁻¹ | 2.4400 nm | 09.45% | 15.21% | 26.36% | 34.56% | 39.41% | 52.45% | 2 nm | 47.79% | −22.3387 kJmol^−1 | zone of inhibition at 100 µM (Candida albicans; [4]): 10 mm; zone of inhibition at 100 µM (Mucor indicus; [4]): 11 mm; zone of inhibition at 100 µM (Bacillus cereus; Bacillus cereus, read-out: diameter of clear zone inhibition): 9 mm
